Results as given in paper PMC12059926, “Development and Biological Assessment of Thiazole-Based Pyridines for Targeted Therapy in Lung Cancer” (ACS Omega, 2025).
Values after ≈ are worked out from the molar mass of the structure shown.

How the values were obtained:
[1] = system: A549 cells; assay: Mitochondrial membrane potential (JC-1) by flow cytometry; format: cell-based, human; settings: for % Mitochondrial membrane depolarized cells / % Mitochondrial membrane polarized cells: IC50 dose, JC-1
Text: The mitochondrial membrane potential provides information about the state of electrons during ATP production through oxidative phosphorylation, which is essential for cellular viability. Mitochondrial dysfunction occurs when this electrical regulation is disturbed and can occur in various diseases and the process of apoptosis.[23] […] Compounds 2m, 2g, and 2c followed this, with depolarization levels exceeding 21%. The mitochondrial dysfunction in compound 2m can be considered a contributing factor to apoptosis.
Cell staining with JC-1 was performed according to the manufacturer’s recommendations for the BD , Pharmingen Flow Cytometry Kit. […] Compounds were applied at IC50 doses of no more than 1 × 10^6/mL per well in 6-well plates. After treatment, each cell suspension was transferred to a 15 mL polystyrene centrifuge tube, the cells were centrifuged at 400g for 5 min, and the supernatant was removed. 0.5 mL of freshly prepared working solution was added to each pellet, and the solution was vortexed. The test cells were soaked in JC-1 working solution at 37 °C for 10–15 min, and the cells were washed twice. After centrifugation at 400g for 5 min, each cell pellet was suspended in 0.5 mL of 1X assay buffer and vortexed. The cells were then analyzed by flow cytometer.
(§1) The apoptotic results (Annexin V-FITC, Caspase 3, JC-1) were evaluated by flow cytometry using FACS Diva Version 6.1.1. software, and the apoptotic cells were determined as the percentage of cells.

[2] = system: caspase-3 in A549 cells; assay: Caspase-3 activation; format: cell-based, human; settings: 24 h
Text: Caspases can take part in the cell death mechanism through both intrinsic and extrinsic pathways, with caspase-3 being the first enzyme activated in the apoptosis process.[24] Activation of the caspase-3 enzyme by the compounds, indicated as caspase-3 positive, and inhibition, indicated as caspase-3 negative, are presented in percentage terms in Table 5.
A Spectrofluorometric Caspase-3 assay kit (BD Pharmingen, Franklin Lakes, NJ) was used for determining Caspase-3 activation by measuring the caspase-3 or DEVD-cleaving activity. Initially, A549 cells at a concentration of 1 × 10^6 cells/mL underwent a washing process using phosphate-buffered saline (PBS). Subsequently, they were suspended in a cold solution known as cell lysis buffer and kept on ice for a duration of 30 min. […] In each reaction, a mixture of […] of diluted Ac DEVD-AMC (a synthetic tetrapeptide fluorogenic substrate used to measure caspase-3 activity) and 0.2 mL of 1x HEPES buffer was added to a well. Then, […] of cell lysate was introduced into each well/reaction. The reaction mixtures were incubated at 37 °C for 1 h. The amount of AMC released from Ac-DEVD-AMC was measured by using a microplate reader (PerkinElmer/Victor/X3) with an excitation wavelength of 380 nm and an emission wavelength of 460 nm. Apoptotic cell lysates containing active caspase-3 produced significant emissions compared to controls. In addition, the AMC emission of nonapoptotic control cell lysates was taken as 100%, and the emission of other cell lysates was measured relative to the emission of control cells. All experiments were repeated in duplicate. Active compounds, which are the most cytotoxic compounds, were evaluated for caspase-3 activation using previously published procedures.[40],[44]
as §1

[3] = system: A549 lung cancer cell line; assay: MTT cytotoxicity assay on A549 lung cancer cells; format: cell-based, human; settings: for IC50: Homo sapiens; for SI: selectivity index: L929 versus A549
Experimental: (§2) The synthesized final compounds (2a–2o) were initially evaluated for their cytotoxic effects to assess their anticancer activity against A549 lung cancer cells. The healthy cell line L929 (mouse fibroblast cell line) was also used to determine the selective antiproliferative properties of the compounds.
(§3) The human lung cancer cell line A549 and mouse fibroblast cell line L929 were used to evaluate the cytotoxicity of the compounds. Cells propagated under the specified conditions were cultured in 96-well plates at 5 × 10^3 cells/well. […] At the end of the incubation period, cell viability was determined by measuring the absorbance of the purple color formed by the breakdown of the MTT dye at 540 nm. Half-maximal inhibitory concentrations (IC50) were determined based on the tested concentrations of the compounds. The tests were triplicated.[38] The MTT assay for cytotoxicity of compounds was determined according to previously published procedures.[39],[40]
(§4) The concentration that inhibits 50% of the cell population was calculated as IC50 using GraphPad Prism 9.0 statistical software program, and standard deviation values were analyzed. Data are expressed as mean ± SD. Comparisons were made using one-way ANOVA for continuous variables with normal distribution, and Tukey’s test was used for post hoc analysis of group differences. p < 0.05 was considered statistically significant.
(§5) The cell viability value of the control group was considered 100%, and all viability values were calculated using the formula below. The experiment was performed in 3 replicates. [drawing 2]

[4] = system: A549 cells; assay: Annexin V-FITC/propidium iodide apoptosis detection by flow cytometry; format: cell-based, human; settings: IC50 dose, 24 h
Experimental: To determine whether the antiproliferative effects of the compounds on the A549 cell line proceed through the apoptotic or necrotic pathway, the assay was performed with Annexin V-FITC/propidium iodide dyes in a flow cytometry device. […] At least 10,000 cells were analyzed, and quadrant analysis was performed. The results are presented as early apoptotic cells, late apoptotic cells, viable cells, and necrotic cells in Table 3, and as a diagram in Figure 1. In control cells, the number of viable cells was 92.04%, necrotic cells were 1.16%, early apoptotic cells were 3.43%, and late apoptotic cells were 3.28%. […] Among the compounds, 2m was the most apoptosis-inducing compound, with 14.99% early apoptotic and 10.63% late apoptotic cell percentages. […] This compound was followed by compound 2c with a 13.79% early apoptotic cells and 4.03% late apoptotic cells. Among the compounds, compound 2o induced early apoptosis the least (1.87%) and necrosis the most (3.10%). […] Nonapoptotic cell death methods, such as necroptosis and pyroptosis, can be considered for the aforementioned compounds.
The compounds were treated with A549 cells at IC50 doses, and early and late apoptosis, necrosis, and viable cell ratios were determined as percentages. Cells were seeded at 37 °C in humidified air containing 5% CO2 with 10^5 cells/plate in each well. A549 cells were collected, washed twice with ice-cold PBS, and resuspended in 100 μL of binding buffer. Five μL (5 μg/mL) of Annexin V-FITC and PI were added to the cells and incubated for 15 min in the dark at room temperature (20–25 °C). Then, 400 μL of binding buffer was added to the mixture samples and analyzed on a flow cytometer. Quadrant analyses were also presented.[41] Compounds 2a, 2b, 2c, 2j, 2m, and 2o, with a satisfactory cytotoxic profile, were examined via flow cytometry to assess the apoptosis/necrosis cell ratio using previously published procedures.[42]
as §1

[5] = target: T1, MMP-9 enzyme (Homo sapiens, UniProt P14780); assay: MMP-9 enzyme inhibition, colorimetric kit; format: biochemical; settings: for inhibition at 100 µM: compounds at 100 μM, mean ± SD
T1 construct: purchased Enzo Life Sciences Inc. (Farmingdale, NY, USA)
T1 sequence (P14780 107-444 limits assumed): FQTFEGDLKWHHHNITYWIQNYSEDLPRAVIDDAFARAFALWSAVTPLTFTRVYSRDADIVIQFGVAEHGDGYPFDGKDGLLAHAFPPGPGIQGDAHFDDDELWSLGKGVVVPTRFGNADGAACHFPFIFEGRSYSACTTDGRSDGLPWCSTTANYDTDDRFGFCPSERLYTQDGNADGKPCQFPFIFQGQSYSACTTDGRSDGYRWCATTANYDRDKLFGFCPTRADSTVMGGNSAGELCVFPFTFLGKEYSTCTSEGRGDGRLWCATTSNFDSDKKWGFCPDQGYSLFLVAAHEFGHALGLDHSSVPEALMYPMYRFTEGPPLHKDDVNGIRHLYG
Experimental: Compounds (2a–2o) were tested to determine their MMP-9 enzyme inhibition potential. The compounds were tested at a concentration of 100 μM, and the standard molecule NNGH at a concentration of 1.3 μM.
MMP-9 inhibition was assessed using a colorimetric kit from Enzo Life Sciences Inc. (Farmingdale, NY, USA), following procedures similar to those described in previous studies.[25],[26] A thiopeptide was used as a chromogenic substrate (Ac-PLG-[2-mercapto-4-methyl-pentanoyl]-LG-OC2H5). 2-Nitro-5-thiobenzoic acid, formed by the reaction of the sulfhydryl group produced as a result of hydrolysis of the thioester by the MMP-9 enzyme and then reaction with DTNB [5,5′-dithiobis(2-nitrobenzoic acid), Ellman’s reagent], gives absorbance at 412 nm in a microplate reader (BioTek, PowerWave, Gen5 software, Winooski, VT, USA). Based on these absorptions, MMP-9 inhibition concentrations were determined. The assays were performed in triplicate. NNGH (N-isobutyl-N-(4-methoxyphenylsulfonyl)glycyl hydroxamic acid) was used as a control inhibitor. Data were shown as mean ± SD. The inhibitor % remaining activity of MMPs was calculated using the following equation:
Inhibitor% activity remaining = (V inhibitor/V control) × 100.
The inhibition (percent) of MMPs was calculated using the following equation: [drawing 1]

[6] = system: L929 (mouse fibroblast cell line); assay: MTT cytotoxicity assay on L929 healthy cells; format: cell-based; settings: mean ± SD
Experimental: as §2, §3, §4, §5

Row | inhibition at 100 µM [5] [%] | Structure (SMILES) | % Mitochondrial membrane depolarized cells [1] [%] | % Mitochondrial membrane polarized cells [1] [%] | % Caspase-3 negative cells [2] [%] | % Caspase-3 positive cells [2] [%] | Q1-UL necrotic cells [4] [%] | Q1-UR late apoptotic cells [4] [%] | IC50 ([3]; A549 cells, MTT, mean ± SD) [µg/mL] | SI: selectivity index [3] | IC50 [6] [µg/mL] | further results
1 |  | N.N.[Cl][Pt][Cl] [Cisplatin, reference compound] | 36.27 | 62.15 | 75.56 | 11.65 | 6.56 | 31.29 |  |  |  | IC50 A549 ([3]; A549 cells, MTT, mean ± SD): 12.65 ± 0.38 µg/mL; total apoptosis (early + late apoptotic cells) [4]: 62.37%
2 |  | COc1ccc(OC)c(-c2csc(NN=Cc3ccccn3)n2)c1 [Compound 2a, 4-(2,5-Dimethoxyphenyl)-2-[2-(pyridin-2 ylmethylene)hydrazinyl]thiazole] |  |  |  |  |  |  | 7.3 ± 0.33 (≈ 21.4 µM) | 0.60 | 4.36 ± 0.32 (≈ 12.8 µM) | MMP-9 inhibition, result in words ([5]; compared with 2f): less active than 2f (2,5-dimethoxypehnyl) or inactive
3 |  | CS(=O)(=O)c1ccc(-c2csc(NN=Cc3ccccn3)n2)cc1 [Compound 2b, 4-(4-(Methylsulfonyl)phenyl)-2-(2-(pyridin-2-ylmethylene)hydrazinyl)thiazole] | 47.96 | 54.51 | 84.70 | 7.73 | 0.33 | 2.28 | 9.93 ± 0.37 (≈ 27.7 µM) |  | 31.2 ± 0.56 (≈ 87.2 µM) | mitochondrial membrane depolarization relative to cisplatin ([1]; versus cisplatin): approximately 1.5 times; Q1-LL viable cells [4]: 90.44%; Q1-LR early apoptotic cells [4]: 6.95%; apoptosis induction, result in words [4]: did not significantly induce apoptosis
4 |  | Oc1ccc(-c2csc(NN=Cc3ccccn3)n2)cc1O [Compound 2d, 4-(2-(2-(Pyridin-2-ylmethylene)hydrazinyl)thiazol-4-yl)benzene-1,2-diol] |  |  |  |  |  |  | 4.7 ± 0.6 (≈ 15 µM) | 1.96 | 9.2 ± 0.36 (≈ 29.5 µM) | 
5 | 30.3 ± 2.64 | Clc1ccc(-c2csc(NN=Cc3ccccn3)n2)cc1Cl [Compound 2e, 4-(3,4-Dichlorophenyl)-2-(2-(pyridin-2-ylmethylene)hydrazinyl)thiazole] |  |  |  |  |  |  | 4.56 ± 0.31 (≈ 13.1 µM) | 1.07 | 4.87 ± 0.3 (≈ 13.9 µM) | 
6 | 70.8 ± 2.2 | COc1ccc(OC)c(-c2csc(NN=Cc3cccnc3)n2)c1 [Compound 2f, 4-(2,5-Dimethoxyphenyl)-2-(2-(pyridin-3-ylmethylene)hydrazinyl)thiazole] |  |  |  |  |  |  | 4.04 ± 0.29 (≈ 11.9 µM) |  | 14 ± 0.57 (≈ 41 µM) | 
